This passage reports IC50 results from ChEMBL document CHEMBL1127758 (Bioorg Med Chem Lett, 1994).

Molecules are shown by their SMILES. pIC50: −log10 of the molar value.

The nature of test [1]: Inhibitory activity against phosphorylase kinase was determined.
Test [2] has as its target cAMP-dependent protein kinase (PKA) (Homo sapiens, UniProt P22694+P17612+P22612).
Description: Inhibitory activity against cAMP-dependent protein kinase A was determined
Test [3] in a line: Inhibition of Ribosomal protein S6 kinase.
Test [4] deals with Epidermal growth factor receptor (Homo sapiens, UniProt P00533).
Description: Inhibitory activity against protein tyrosine kinase of Epidermal growth factor receptor was determined
Test [5] addresses Proto-oncogene tyrosine-protein kinase Src (Homo sapiens, UniProt P12931). Briefly: Inhibition of Src tyrosine kinase.

Chain of Proto-oncogene tyrosine-protein kinase Src (P12931 2-536 limits assumed): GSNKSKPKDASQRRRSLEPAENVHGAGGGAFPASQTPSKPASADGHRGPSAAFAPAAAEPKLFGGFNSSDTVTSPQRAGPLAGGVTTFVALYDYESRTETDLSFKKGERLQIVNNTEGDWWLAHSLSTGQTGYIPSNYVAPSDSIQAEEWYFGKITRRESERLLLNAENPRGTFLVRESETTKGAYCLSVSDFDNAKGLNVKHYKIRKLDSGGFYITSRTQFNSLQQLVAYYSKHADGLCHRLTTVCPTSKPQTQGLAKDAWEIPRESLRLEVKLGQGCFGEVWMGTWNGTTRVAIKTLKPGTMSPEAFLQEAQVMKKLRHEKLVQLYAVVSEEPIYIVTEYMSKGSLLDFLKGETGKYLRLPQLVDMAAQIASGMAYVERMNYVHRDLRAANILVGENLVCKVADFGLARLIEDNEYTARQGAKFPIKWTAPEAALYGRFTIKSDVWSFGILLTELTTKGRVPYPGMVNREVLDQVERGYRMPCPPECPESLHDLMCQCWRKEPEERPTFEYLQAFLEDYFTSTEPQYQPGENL
Chain of Epidermal growth factor receptor (P00533 whole entry): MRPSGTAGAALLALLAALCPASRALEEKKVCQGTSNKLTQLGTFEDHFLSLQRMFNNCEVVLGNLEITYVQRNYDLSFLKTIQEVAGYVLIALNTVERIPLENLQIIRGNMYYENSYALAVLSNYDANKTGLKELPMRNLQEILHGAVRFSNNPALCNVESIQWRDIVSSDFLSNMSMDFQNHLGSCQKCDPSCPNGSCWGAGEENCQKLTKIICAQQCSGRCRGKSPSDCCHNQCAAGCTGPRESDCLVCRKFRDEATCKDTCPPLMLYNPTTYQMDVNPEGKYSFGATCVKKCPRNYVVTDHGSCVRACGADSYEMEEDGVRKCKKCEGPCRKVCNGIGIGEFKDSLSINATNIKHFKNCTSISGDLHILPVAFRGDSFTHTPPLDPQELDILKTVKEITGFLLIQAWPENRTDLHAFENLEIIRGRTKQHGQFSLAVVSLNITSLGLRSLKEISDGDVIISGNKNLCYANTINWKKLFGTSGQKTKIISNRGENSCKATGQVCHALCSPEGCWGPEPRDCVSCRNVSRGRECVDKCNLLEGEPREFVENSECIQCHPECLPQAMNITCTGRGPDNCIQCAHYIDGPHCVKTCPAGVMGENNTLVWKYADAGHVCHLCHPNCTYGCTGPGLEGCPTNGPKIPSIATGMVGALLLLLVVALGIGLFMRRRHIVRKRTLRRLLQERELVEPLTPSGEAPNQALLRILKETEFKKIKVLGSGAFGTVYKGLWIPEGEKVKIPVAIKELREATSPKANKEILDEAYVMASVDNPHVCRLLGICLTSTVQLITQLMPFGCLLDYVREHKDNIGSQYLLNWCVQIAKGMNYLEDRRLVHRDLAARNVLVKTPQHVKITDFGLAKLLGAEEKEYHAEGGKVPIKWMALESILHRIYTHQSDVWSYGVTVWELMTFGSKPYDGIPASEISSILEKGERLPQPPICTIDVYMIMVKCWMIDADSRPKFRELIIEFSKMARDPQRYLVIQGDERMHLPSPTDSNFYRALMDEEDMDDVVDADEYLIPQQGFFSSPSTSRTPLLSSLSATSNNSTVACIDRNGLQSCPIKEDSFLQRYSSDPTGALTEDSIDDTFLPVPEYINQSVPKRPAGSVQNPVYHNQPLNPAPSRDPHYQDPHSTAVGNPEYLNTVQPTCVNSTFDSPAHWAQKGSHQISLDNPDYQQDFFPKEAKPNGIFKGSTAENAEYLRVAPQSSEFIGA

As to `CC[N+](C)(C)[C@H]1C[C@@H]2O[C@](C)([C@H]1OC)n1c3ccccc3c3c4c(c5c6ccccc6n2c5c31)C(=O)NC4`, in test [1], the pIC50 was 7.74. The molecule also had an IC50 in test [2] of 270 nM.
For the molecule `CO[C@H]1[C@@H](N(C)OC(=O)C(C)(C)C)C[C@@H]2O[C@@]1(C)n1c3ccccc3c3c4c(c5c6ccccc6n2c5c31)C(=O)NC4=O`, the pIC50 in test [1] is 5.28. This molecule also yielded an IC50 in test [2] of over 100000 nM.
As for `CO[C@H]1[C@@H](N(C)C(=O)C(F)(F)F)C[C@@H]2O[C@@]1(C)n1c3ccccc3c3c4c(c5c6ccccc6n2c5c31)C(=O)NC4`, the pIC50 in test [1] is 8.00; in test [3], 7.00. In test [2], the IC50 came out at 17000 nM.
As to `CO[C@H]1[C@@H](N(C)C(=O)c2ccccc2)C[C@@H]2O[C@@]1(C)n1c3ccccc3c3c4c(c5c6ccccc6n2c5c31)C(=O)N[C@@H]4O`, in test [1], the pIC50 is 7.46.
Turning to `CO[C@H]1[C@@H](N(C)C(=O)OC(C)(C)C)C[C@@H]2O[C@@]1(C)n1c3ccccc3c3c4c(c5c6ccccc6n2c5c31)C(=O)NC4`, the pIC50 in test [1] was 6.38; in test [3], 6.00. The IC50 in test [2] was 28000 nM.
`CN[C@H]1C[C@@H]2O[C@](C)([C@H]1OC)n1c3ccccc3c3c4c(c5c6ccccc6n2c5c31)[C@@H](O)NC4=O` had a pIC50 in test [1] of 6.77. The molecule also returned an IC50 in test [2] of 3300 nM.
Taken in the same sequence, the figures for `COC(=O)c1ccc(C(=O)N(C)[C@H]2C[C@@H]3O[C@](C)([C@H]2OC)n2c4ccccc4c4c5c(c6c7ccccc7n3c6c42)C(=O)NC5)cc1` were 7.28 and 3670 nM.
Turning to `CO[C@H]1[C@@H](N(C)C(=O)c2ccccc2Cl)C[C@@H]2O[C@@]1(C)n1c3ccccc3c3c4c(c5c6ccccc6n2c5c31)C(=O)NC4`, the pIC50 in test [1] is 7.11. Further, the IC50 in test [2] came out at 1500 nM.
In the case of `CO[C@H]1[C@@H](N(C)C(=O)c2cnccn2)C[C@@H]2O[C@@]1(C)n1c3ccccc3c3c4c(c5c6ccccc6n2c5c31)C(=O)NC4`, the pIC50 in test [1] was 7.70; in test [4], 5.09. This molecule also yielded an IC50 in test [2] of 750 nM.
`CO[C@H]1[C@@H](N(C)CC(=O)O)C[C@@H]2O[C@@]1(C)n1c3ccccc3c3c4c(c5c6ccccc6n2c5c31)C(=O)NC4`: the pIC50 in test [1] is 7.82. This molecule also had an IC50 in test [2] of 140 nM.
In the case of `CO[C@H]1[C@@H](N(C)C(=O)c2ccccc2)C[C@@H]2O[C@@]1(C)n1c3ccccc3c3c4c(c5c6ccccc6n2c5c31)C(=O)NC4=O`, the pIC50 in test [1] was 6.57. The IC50 in test [2] is 750 nM.
For the molecule `CN[C@H]1C[C@@H]2O[C@](C)([C@H]1OC)n1c3ccccc3c3c4c(c5c6ccccc6n2c5c31)C(=O)NC4=O`, the pIC50 in test [1] is 8.30; in test [5] it was 6.10. The molecule further registered an IC50 in test [2] of 26 nM.
The molecule `CCCCC(O)CN(C)[C@H]1C[C@@H]2O[C@](C)([C@H]1OC)n1c3ccccc3c3c4c(c5c6ccccc6n2c5c31)C(=O)NC4` (some centres not stated) had a pIC50 in test [1] of 7.30. In addition, the IC50 in test [2] was determined as 360 nM.
For `CO[C@H]1[C@@H](N(C)C(C)=O)C[C@@H]2O[C@@]1(C)n1c3ccccc3c3c4c(c5c6ccccc6n2c5c31)C(=O)NC4` the same measures were 8.00 and 1500 nM.
Regarding `CCN(C)[C@H]1C[C@@H]2O[C@](C)([C@H]1OC)n1c3ccccc3c3c4c(c5c6ccccc6n2c5c31)C(=O)NC4`, the pIC50 in test [1] is 7.15; in test [5] it was 6.62. Moreover, the IC50 in test [2] turned out to be 1600 nM.
On to `CO[C@H]1[C@@H](N(C)C(=O)CCC(=O)O)C[C@@H]2O[C@@]1(C)n1c3ccccc3c3c4c(c5c6ccccc6n2c5c31)C(=O)NC4`, for which the values for the pIC50 in test [1] and in test [5] were 7.21 and 6.70, respectively. Further, in test [2], the IC50 amounted to 700 nM.
With `CO[C@H]1[C@@H](N(C)C(=O)c2ccccc2)C[C@@H]2O[C@@]1(C)n1c3ccccc3c3c4c(c5c6ccccc6n2c5c31)C(=O)N(Cc1ccccc1)C4`, the pIC50 in test [1] was about 4.00; in test [3], under 4.00. Further, the 50% inhibitory concentration (IC50) in test [2] was over 100000 nM.
For the molecule `CN[C@H]1C[C@@H]2O[C@](C)([C@H]1OC)n1c3ccccc3c3c4c(c5c6ccccc6n2c5c31)[C@H](O)NC4=O`, the pIC50 in test [1] was 7.66. Besides, the IC50 in test [2] was determined as 2250 nM.
As to `CNC(=S)N(C)[C@H]1C[C@@H]2O[C@](C)([C@H]1OC)n1c3ccccc3c3c4c(c5c6ccccc6n2c5c31)C(=O)NC4`, the results for the pIC50 in test [1], in test [3] and in test [4] were 8.00, 6.05 and 4.90, respectively. The molecule also displayed an IC50 in test [2] of 1600 nM.
`CN[C@H]1C[C@@H]2O[C@](C)([C@H]1OC)n1c3ccccc3c3c4c(c5c6ccccc6n2c5c31)C(=O)N[C@@H]4O` had a pIC50 in test [1] of 8.40.
As for `CO[C@H]1[C@@H](N(C)C(=O)c2ccc(C(=O)O)cc2)C[C@@H]2O[C@@]1(C)n1c3ccccc3c3c4c(c5c6ccccc6n2c5c31)C(=O)NC4`, the pIC50 in test [1] is 7.52; in test [3] it was 7.00. The molecule also returned an IC50 in test [2] of 10000 nM.
Take `COC(=O)CN(C)[C@H]1C[C@@H]2O[C@](C)([C@H]1OC)n1c3ccccc3c3c4c(c5c6ccccc6n2c5c31)C(=O)NC4`: the negative-log IC50 (pIC50) in test [1] was 6.36. Also, the IC50 in test [2] stood at 3200 nM.
In turn, `CO[C@H]1[C@@H](N(C)C(=O)c2ccccc2)C[C@@H]2O[C@@]1(C)n1c3ccccc3c3c4c(c5c6ccccc6n2c5c31)C(=O)NC4` showed a pIC50 in test [1] of 7.32.
The same measure, in the same setting: to `CN[C@H]1C[C@@H]2O[C@](C)([C@H]1OC)n1c3ccccc3c3c4c(c5c6ccccc6n2c5c31)C(=O)N[C@H]4O` belongs 8.22.
`COc1ccc(C(=O)N(C)[C@H]2C[C@@H]3O[C@](C)([C@H]2OC)n2c4ccccc4c4c5c(c6c7ccccc7n3c6c42)C(=O)NC5)cc1` had a pIC50 in test [1] of 6.89. This molecule also had an IC50 in test [2] of 1500 nM.
Take `CO[C@H]1[C@@H](N(C)C(=O)c2cccc([N+](=O)[O-])c2)C[C@@H]2O[C@@]1(C)n1c3ccccc3c3c4c(c5c6ccccc6n2c5c31)C(=O)NC4`: the pIC50 was 7.22 in test [1] and 7.00 in test [3]. Besides, in test [2], the IC50 was found to be 2500 nM.
`CO[C@H]1[C@@H](N(C)C(=O)c2cccnc2)C[C@@H]2O[C@@]1(C)n1c3ccccc3c3c4c(c5c6ccccc6n2c5c31)C(=O)NC4`: the pIC50 in test [1] was 7.92. In addition, the IC50 in test [2] was 380 nM.
For `CO[C@H]1[C@@H](N(C)C(=O)CNC(=O)OC(C)(C)C)C[C@@H]2O[C@@]1(C)n1c3ccccc3c3c4c(c5c6ccccc6n2c5c31)C(=O)NC4`, the pIC50 is 6.92 in test [1], 6.70 in test [3] and 6.80 in test [5]. In test [2], the IC50 was 2250 nM.
`COC(=O)CN1Cc2c(c3c4ccccc4n4c3c3c2c2ccccc2n3[C@]2(C)O[C@H]4C[C@H](N(C)C(=O)c3ccccc3)[C@@H]2OC)C1=O`: the results for the pIC50 in test [1] and in test [3] were about 4.00 and under 4.00, respectively. Also, the IC50 in test [2] was over 100000 nM.
The molecule `CO[C@H]1[C@@H](N(C)Cc2ccccc2)C[C@@H]2O[C@@]1(C)n1c3ccccc3c3c4c(c5c6ccccc6n2c5c31)C(=O)NC4` had a pIC50 in test [1] of 7.00. The molecule also registered an IC50 in test [2] of 480 nM.
For `CO[C@H]1[C@@H](N(C)c2ccccc2)C[C@@H]2O[C@@]1(C)n1c3ccccc3c3c4c(c5c6ccccc6n2c5c31)C(=O)NC4` the same measures were 7.82 and 55 nM.
Consider `CO[C@H]1[C@@H]([N+](C)(C)C)C[C@@H]2O[C@@]1(C)n1c3ccccc3c3c4c(c5c6ccccc6n2c5c31)C(=O)NC4`, for which the pIC50 in test [1] was 7.68; in test [3], 7.30. In test [2], this molecule gave a concentration for half-maximal inhibition (IC50) of 68 nM.
Turning to `CO[C@H]1[C@@H](N(C)C(=O)C2CCCCC2)C[C@@H]2O[C@@]1(C)n1c3ccccc3c3c4c(c5c6ccccc6n2c5c31)C(=O)NC4`, the pIC50 in test [1] was 7.10. Further, the IC50 in test [2] came to 1570 nM.
For `CO[C@H]1[C@@H](N(C)C(=O)CN)C[C@@H]2O[C@@]1(C)n1c3ccccc3c3c4c(c5c6ccccc6n2c5c31)C(=O)NC4` the same measures were 7.29 and 360 nM.
Taken in the same sequence, the figures for `CO[C@H]1[C@@H](N(C)C(=O)c2cccc(Cl)c2)C[C@@H]2O[C@@]1(C)n1c3ccccc3c3c4c(c5c6ccccc6n2c5c31)C(=O)NC4` were 5.72 and 6800 nM.
For `COC(=O)N(C)[C@H]1C[C@@H]2O[C@](C)([C@H]1OC)n1c3ccccc3c3c4c(c5c6ccccc6n2c5c31)C(=O)NC4` the same measures were 7.40 and 480 nM.
Turning to `CO[C@H]1[C@@H](N(C)CCC#N)C[C@@H]2O[C@@]1(C)n1c3ccccc3c3c4c(c5c6ccccc6n2c5c31)C(=O)NC4`, in test [1], the pIC50 was 7.62. The molecule further came in with an IC50 in test [2] of 1400 nM.
Taken in the same sequence, the figures for `CO[C@H]1[C@@H](N(C)C(=O)c2ccc(Cl)cc2)C[C@@H]2O[C@@]1(C)n1c3ccccc3c3c4c(c5c6ccccc6n2c5c31)C(=O)NC4` were 6.49 and 2600 nM.
Taken in the same sequence, the figures for `CO[C@H]1[C@@H](N(C)S(C)(=O)=O)C[C@@H]2O[C@@]1(C)n1c3ccccc3c3c4c(c5c6ccccc6n2c5c31)C(=O)NC4` were 7.72 and 1000 nM.
Take `CO[C@H]1[C@@H](N(C)C(=O)c2cc([N+](=O)[O-])cc([N+](=O)[O-])c2)C[C@@H]2O[C@@]1(C)n1c3ccccc3c3c4c(c5c6ccccc6n2c5c31)C(=O)NC4`: the pIC50 was 6.43 in test [1] and 6.70 in test [3]. Also, in test [2], the IC50 was over 100000 nM.

As a reminder, the pIC50 is the negative decadic logarithm of the IC50, by convention in mol/L. Broadly, the IC50 is the point on the concentration scale where inhibition reaches its midpoint.
